Laboratory results from ChEMBL document CHEMBL4834468, “Enantioselective Synthesis and Profiling of Potent, Nonlinear Analogues of Antimalarial Tetraoxanes E209 and N205” (ACS Med Chem Lett, 2021).
Converted amounts (≈) assume the structure as drawn.

What was measured:
[1] = Aqueous solubility of compound in PBS at pH 7.4; type: physicochemical
[2] = Intrinsic clearance in rat hepatocytes measured per 10^6 cells up to 120 mins by LC-MS analysis; type: ADME, cell-based, Hepatocyte; conditions: read-out: CLH
[3] = Intrinsic clearance in human liver microsome up to 30 mins by LC-MS analysis; type: ADME; conditions: liver microsomes, read-out: CLH
Plasmodium falciparum [4] = assay: microbe, parasite or virus in culture; conditions: D10, 72 h
Description: Antiplasmodial activity against chloroquine-sensitive Plasmodium falciparum D10 incubated for 72 hrs by spectrophotometry based parasite lactate dehydrogenase assay

Plasmodium falciparum [5] = assay: microbe, parasite or virus in culture; conditions: W2, 72 h
Description: Antiplasmodial activity against chloroquine-resistant Plasmodium falciparum W2 incubated for 72 hrs by spectrophotometry based parasite lactate dehydrogenase assay

[6] = Solubility of compound in 0.1 M HCl; type: physicochemical
[7] = Solubility of the compound in FaSSIF; type: physicochemical
[8] = Solubility of compound in 0.1 M HCl assessed as equilibrium pH; type: physicochemical; conditions: buffer
[9] = Solubility of the compound in FaSSIF assessed as equilibrium pH; type: physicochemical; conditions: simulated gi fluid
[10] = Intrinsic clearance in mouse liver microsome by LC-MS/MS analysis; type: ADME, microsomes
[11] = Intrinsic clearance in mouse liver microsome assessed as half life by LC-MS/MS analysis; type: ADME; conditions: microsomes
[12] = Tmax in Sprague-Dawley rat at 10 mg/kg, po administered as single dose; type: ADME, organism-based; conditions: in vivo
[13] = Cmax in Sprague-Dawley rat at 10 mg/kg, po administered as single dose; type: ADME, organism-based; set-up: route oral, dose 10 mg/kg; conditions: in vivo
[14] = AUC (infinity) in Sprague-Dawley rat at 10 mg/kg, po administered as single dose; type: ADME, organism-based; set-up: time infinity, route oral, dose 10 mg/kg; conditions: in vivo
[15] = Oral bioavailability in Sprague-Dawley rat at 10 mg/kg administered as single dose; type: ADME, organism-based; conditions: in vivo
Plasmodium falciparum [16] = assay: Antiplasmodial activity against chloroquine-sensitive Plasmodium falciparum 3D7; type: functional, organism-based

Structure (SMILES) | solubility [1] [µM] | hepatocyte CLint [2] [µL/min/1e6 cells] | microsomal CLint [3] [µL/min/mg] | IC50 (Plasmodium falciparum [4]) [nM] | IC50 (Plasmodium falciparum [5]) [nM] | solubility [6] [µg/mL] | solubility at 1 h [7] [µg/mL] | pH [8] | pH [9] | also measured
c1cc([C@@H]2CCCC3(C2)OOC2(OO3)C3CC4CC(C3)CC2C4)ccc1OCCN1CCOCC1 (some centres undefined) | 0.1 (≈ 0.0486 µg/mL) | 21.6 | 22.2 | 17.4 | 16 | – | – | – | – | –
c1cc([C@H]2CCCC3(C2)OOC2(OO3)C3CC4CC(C3)CC2C4)ccc1OCCN1CCOCC1 (some centres undefined) | 0.1 (≈ 0.0486 µg/mL) | 49.2 | 22.1 | 16 | 15.8 | 284 (≈ 585 µM) | 69 (≈ 142 µM) | 1.11 | 6.42 | –
c1cc([C@H]2CCCC3(C2)OOC2(OO3)C3CC4CC(C3)CC2C4)ccc1CN1CCOCC1 (some centres undefined) | 0.1 (≈ 0.0456 µg/mL) | 50.2 | 19.7 | 15.2 | 15.2 | 165 (≈ 362 µM) | 248 (≈ 544 µM) | 1.13 | 6.42 | –
C[C@H]1[C@@H](O)O[C@@H]2O[C@@]3(C)CC[C@H]4[C@H](C)CC[C@@H]1[C@@]24OO3 [ARTENIMOL] | – | – | – | 2.59 | 1.02 | – | – | – | – | –
c1cc(C2CCCC3(C2)OOC2(OO3)C3CC4CC(C3)CC2C4)ccc1CN1CCOCC1 (racemic) | – | – | – | 15.4 | 11.2 | – | – | – | – | –
FC1CCN(CCOc2ccc([C@@H]3CCCC4(C3)OOC3(OO4)C4CC5CC(C4)CC3C5)cc2)CC1 (some centres undefined) | 0.1 (≈ 0.0502 µg/mL) | 13.5 | 19.8 | 17.5 | 19.2 | – | – | – | – | –
CC(C)(N)CNC(=O)C[C@H]1CC[C@]2(CC1)OO[C@]1(O2)C2CC3CC(C2)CC1C3 [OZ277] | – | – | – | – | – | – | – | – | – | CLH ([10]; microsomes): 5.4 µL/min/mg; t1/2 [11]: 2.13 h
c1cc(C2CCC3(CC2)OOC2(OO3)C3CC4CC(C3)CC2C4)ccc1CN1CCOCC1 (centres undefined) | 0.106 (≈ 0.0483 µg/mL) | – | – | 9.38 | 8.65 | 21.2 (≈ 46.5 µM) | 24 (≈ 52.7 µM) | 1 | 6.1 | Tmax [12]: 4.33 h; Cmax [13]: 136 ng/mL; AUC(0-inf) [14]: 608 ng·h/mL; bioavailability [15]: 41.3%
c1cc([C@@H]2CCCC3(C2)OOC2(OO3)C3CC4CC(C3)CC2C4)ccc1CN1CCOCC1 (some centres undefined) | 0.1 (≈ 0.0456 µg/mL) | 26.2 | 27.1 | 12.5 | 11.2 | 188 (≈ 413 µM) | 324 (≈ 711 µM) | 1.12 | 6.43 | Tmax [12]: 2 h; Cmax [13]: 410 ng/mL; AUC(0-inf) [14]: 1440 ng·h/mL; bioavailability [15]: 76.4%
c1cc([C@H]2CC[C@]3(CC2)OO[C@]2(O3)C3CC4CC(C3)CC2C4)ccc1OCCN1CCOCC1 [ARTEFENOMEL] | 0.85 (≈ 0.399 µg/mL) | – | – | – | – | – | 120 (≈ 256 µM) | – | 6.6 | IC50 (Plasmodium falciparum [16]): 5.1 nM
FC1CCN(CCOc2ccc(C3CCC4(CC3)OOC3(OO4)C4CC5CC(C4)CC3C5)cc2)CC1 (centres undefined) | 0.1 (≈ 0.0502 µg/mL) | 12 | 23 | 8.96 | 8.49 | 1790 (≈ 3570 µM) | 215 (≈ 429 µM) | 1.13 | 6.42 | –
FC1CCN(Cc2ccc([C@@H]3CCCC4(C3)OOC3(OO4)C4CC5CC(C4)CC3C5)cc2)CC1 (some centres undefined) | 0.1 (≈ 0.0472 µg/mL) | 19.2 | 35.9 | 10.6 | 10.3 | 95 (≈ 201 µM) | 195 (≈ 413 µM) | 1.12 | 6.43 | –
FC1CCN(CCOc2ccc(C3CCCC4(C3)OOC3(OO4)C4CC5CC(C4)CC3C5)cc2)CC1 (racemic) | – | – | – | 12.9 | 12.8 | – | – | – | – | –
NC1CCN(C(=O)O[C@@H]2CCC[C@]3(C2)OOC2(O3)C3CC4CC(C3)CC2C4)CC1 (some centres undefined) | – | – | – | – | – | – | – | – | – | microsomal CLint ([10]; liver microsomes, read-out: CLH): 155 µL/min/mg; EC50 (Plasmodium falciparum [5]): 1.8 nM
FC1CCN(Cc2ccc([C@H]3CCCC4(C3)OOC3(OO4)C4CC5CC(C4)CC3C5)cc2)CC1 (some centres undefined) | < 0.1 | 30.7 | 26.7 | 16.5 | 14.9 | 60 (≈ 127 µM) | 189 (≈ 401 µM) | 1.14 | 6.44 | –
c1cc(C2CCCC3(C2)OOC2(OO3)C3CC4CC(C3)CC2C4)ccc1OCCN1CCOCC1 (centres undefined) | – | – | – | 16.4 | 17.7 | – | – | – | – | –
FC1CCN(Cc2ccc(C3CCC4(CC3)OOC3(OO4)C4CC5CC(C4)CC3C5)cc2)CC1 (centres undefined) | – | – | – | 16.1 | 11.7 | 101 (≈ 214 µM) | 14.8 (≈ 31.4 µM) | 1 | 6.1 | –
FC1CCN(Cc2ccc(C3CCCC4(C3)OOC3(OO4)C4CC5CC(C4)CC3C5)cc2)CC1 (racemic) | – | – | – | 15.7 | 14.4 | – | – | – | – | –
c1cc(C2CCC3(CC2)OOC2(OO3)C3CC4CC(C3)CC2C4)ccc1OCCN1CCOCC1 (centres undefined) | – | – | – | 12.4 | 10.1 | – | – | – | – | –
FC1CCN(CCOc2ccc([C@H]3CCCC4(C3)OOC3(OO4)C4CC5CC(C4)CC3C5)cc2)CC1 (some centres undefined) | 0.1 (≈ 0.0502 µg/mL) | 16.7 | 26.3 | 20.8 | 22.5 | 1270 (≈ 2530 µM) | 413 (≈ 823 µM) | 1.14 | 6.43 | –
